{"source": "the NIST ThermoML archive (doi:10.1016/j.fluid.2013.09.028)", "experiment": "refractive index (Na D-line) (dimensionless); wn = mass fraction of the nth substance listed", "details": "298.15 K, 101 kPa, Liquid, Standard Abbe refractometry", "note": "Numbers after ± are expanded uncertainties.", "data": [{"compound": "CN1CCCC1=O", "note": "[N-methylpyrrolidone] + O", "values": [{"measurement": "refractive index", "setting": "w1 = 0.0958", "value": "1.3462 ± 0.0005"}, {"measurement": "refractive index", "setting": "w1 = 0.0961", "value": "1.3462 ± 0.0005"}]}, {"compound": "CC#N", "note": "[acetonitrile] + O", "values": [{"measurement": "refractive index", "setting": "w1 = 0.0473", "value": "1.3425 ± 0.0005"}, {"measurement": "refractive index", "setting": "w1 = 0.0477", "value": "1.3404 ± 0.0005"}]}, {"compound": "O=C([O-])[O-].[K+].[K+]", "note": "[potassium carbonate] + O", "values": [{"measurement": "refractive index", "setting": "w1 = 0.0475", "value": "1.3401 ± 0.0005"}, {"measurement": "refractive index", "setting": "w1 = 0.0968", "value": "1.3378 ± 0.0005"}]}, {"compound": "O=C([O-])[O-].[Na+].[Na+]", "note": "[sodium carbonate] + O", "values": [{"measurement": "refractive index", "setting": "w1 = 0.0473", "value": "1.3426 ± 0.0005"}, {"measurement": "refractive index", "setting": "w1 = 0.097", "value": "1.3378 ± 0.0005"}]}]}
